{
  "source": "patent US4451461A",
  "about": "“10-(1-Aza-[2,2,2)-bicyclo-3-octyl]-10H-2-phenothiazinesulfonamide and derivatives thereof” (Pharmindustrie, priority 1981, dated 1984)",
  "system": "gastric hypersecretion stimulated by pentagastrine (Heidenhein pouch dogs)",
  "assay": "Anti-secretory activity against pentagastrine-stimulated gastric hypersecretion in dogs fitted with the Heidenhein pouch",
  "assay_type": "in vivo, dog (mongrels)",
  "settings": "for ED50 (dose which reduces the hourly acid output by 50% during the 3rd or 4th hour in relation to the second hour of perfusion): p.o., gelatine capsule, 1.5 h after start of pentagastrine perfusion, dogs, doses expressed as base",
  "description": "The anti-secretory activity of the compounds of formula (I) according to the invention has been investigated in cases of gastric hypersecretion which has been stimulated by pentagastrine in dogs fitted with the Heidenhein pouch.\nThree mongrels, fitted with the Heidenhein pouch and not having eaten for 18 hours, were given a veinous perfusion of […] pentagastrine, at a volume of 30 ml/hour for 4 hours. The secretion in the pouch was collected in a bottle which was changed every 15 minutes. 1.5 hours after commencement of the perfusion, the product to be investigated was administered orally in an h°000 gelatine-coated capsule. The effective dose 50% (ED50) is the dose which reduces the hourly acid output by 50% during the 3rd or 4th hour of the experiment in relation to the acid output of the second hour of perfusion. The doses are expressed as a product in basic form.",
  "data": [
    {"smiles": "CN/C(=N/CCSCc1nc[nH]c1C)NC#N", "note": "[Cimetidine]", "values": [
      {"measurement": "ED50 (dose which reduces the hourly acid output by 50% during the 3rd or 4th hour in relation to the second hour of perfusion)", "result": 2.3, "unit": "mg/kg"}
    ]},
    {"smiles": "CNS(=O)(=O)c1ccc2c(c1)N(C1CN3CCC1CC3)c1ccccc1S2", "note": "(stereo not shown) [Example 2, N-METHYL-10-[1-AZA-(2,2,2)-BICYCLO-3-OCTYL]-10H-2-PHENOTHIAZINESULFONAMIDE]", "values": [
      {"measurement": "activity compared with cimetidine (in words)", "setting": "Heidenhein pouch dogs, oral, vs cimetidine", "result": "more active than cimetidine"},
      {"measurement": "ED50 (dose which reduces the hourly acid output by 50% during the 3rd or 4th hour in relation to the second hour of perfusion)", "result": 0.7, "unit": "mg/kg"}
    ]},
    {"smiles": "CN(C)S(=O)(=O)c1ccc2c(c1)N(C1CN3CCC1CC3)c1ccccc1S2", "note": "(stereo not shown) [N,N-dimethyl-10-[1-aza-(2,2,2)-bicyclo-3-octyl]-10H-2-phenothiazinesulfonamide]", "values": [
      {"measurement": "ED50 (dose which reduces the hourly acid output by 50% during the 3rd or 4th hour in relation to the second hour of perfusion)", "result": 1.25, "unit": "mg/kg"}
    ]}
  ]
}
